Results reported in patent publication US7863332B2, “Biaromatic compound activators of PPARγ receptors and cosmetic/pharmaceutical compositions comprised thereof” (Galderma Research & Development, priority 2004, dated 2011).

Experiments:
Type in all cases: cell-based
PPARα = biological target: T1, PPARα (Homo sapiens, UniProt Q07869); experiment: Cross-curve PPAR transactivation test (PPARα); settings: HeLN cells, Gal-hPPARα, luciferase reporter; cross curves against reference agonist, Schild regression; n.a means not active; read-out: PPAR alpha Kd app
T1 sequence (Q07869 202-468 limits assumed): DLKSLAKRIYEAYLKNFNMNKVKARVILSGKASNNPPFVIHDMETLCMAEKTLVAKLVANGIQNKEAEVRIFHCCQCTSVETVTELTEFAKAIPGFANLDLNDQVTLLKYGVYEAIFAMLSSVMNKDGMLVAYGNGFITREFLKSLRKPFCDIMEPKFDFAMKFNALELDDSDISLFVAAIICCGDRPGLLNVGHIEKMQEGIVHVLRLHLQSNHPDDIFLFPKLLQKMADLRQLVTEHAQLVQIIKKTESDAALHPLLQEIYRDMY
Method: (§1) The activation of PPAR receptors with an agonist (activator) in HeLN cells leads to the expression of a reporter gene, luciferase, which, in the presence of a substrate, generates light. The modulation of the PPAR receptors is measured by quantifying the luminescence produced after incubating the cells in the presence of a reference agonist. The ligands displace the agonist from its site. The measurement of the activity is performed by quantifying the light produced. This measurement makes it possible to determine the modulatory activity of the compounds according to the invention by determining the constant that is the affinity of the molecule for the PPAR receptor. Since this value can fluctuate depending on the basal activity and the expression of the receptor, it is referred to as Kd apparent (KdApp in nM).
(§2) To determine this constant, “cross curves” of the test product against a reference agonist are produced in a 96-well plate: 10 concentrations of the test product plus a concentration 0 are arranged in a line, and 7 concentrations of the agonist plus a concentration 0 are arranged in a column. This is 88 measurement points for 1 product and 1 receptor. The remaining 8 wells are used for repeatability controls.
(§3) Measurements are also taken for total agonist controls with the same products.
(§4) The HeLN cell lines used are stable transfectants containing the plasmids ERE-βGlob-Luc-SV-Neo (reporter gene) and PPAR (α, δ, γ) Gal-hPPAR. These cells are inoculated into 96-well plates at a rate of 10 000 cells per well in 100 μl of DMEM medium without phenol red and supplemented with 10% of defatted calf serum. The plates are then incubated at 37° C. and 7% CO2 for 16 hours.
(§5) The various dilutions of the test products and of the reference ligand are added at a rate of 5 μl per well. The plates are then incubated for 18 hours at 37° C. and 7% CO2. The culture medium is removed by turning over and 100 μl of a 1:1 PBS/luciferin mixture are added to each well. After 5 minutes, the plates are read by the luminescence detector.

PPARγ = biological target: T2, PPARγ (Homo sapiens, UniProt P37231); experiment: Cross-curve PPAR transactivation test (PPARγ); settings: HeLN cells, Gal-hPPARγ, luciferase reporter; cross curves against reference agonist, Schild regression; n.a means not active; read-out: PPAR gamma Kd app
T2 sequence (P37231 238-505 limits assumed): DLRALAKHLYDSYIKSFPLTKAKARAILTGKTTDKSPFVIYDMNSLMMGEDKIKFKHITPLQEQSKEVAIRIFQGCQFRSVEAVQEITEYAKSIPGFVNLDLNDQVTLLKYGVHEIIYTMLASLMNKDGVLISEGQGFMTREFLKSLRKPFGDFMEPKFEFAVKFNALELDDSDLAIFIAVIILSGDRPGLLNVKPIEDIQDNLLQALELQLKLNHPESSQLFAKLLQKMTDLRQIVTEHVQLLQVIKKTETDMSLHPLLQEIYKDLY
Method: as §1, §2, §3, §4, §5

[1] = test system: sebocytes obtained from rat preputial glands; experiment: Rat sebocyte culture test; settings: 120 h, 14C acetate-labelled lipids, 5 days incubation + 24 hours label, read-out: Triglycerides AC50
Source text: Sebocytes in culture obtained from rat preputial gland constitute a pertinent model for evaluating sebaceous function modulatory compounds as described by Rosenfield et al. (Mechanisms of androgen induction of sebocyte differentiation. Rosenfield R. L., Deplewski D., Kentsis A., Ciletti N., Dermatology, 1998; 196(1):43-6). This model has especially been used to characterize PPAR compounds with potential in dermatology (Rat preputial sebocyte differentiation involves peroxisome proliferator-activated receptors. Rosenfield R. L., Kentsis A., Deplewski D., Ciletti N., J. Invest. Dermatol., 1999 February; 112(2):226-32). These sebocytes have functional similarities close to those of human skin sebocytes (response to androgens and to anti-androgens, accumulation of specific sebum lipids, expression of specific markers of the sebaceous gland). The data resulting from this test are considered as pertinent of potential activity on the human sebaceous gland.
Protocol for culturing sebocytes obtained from rat preputial glands
The preputial glands are obtained from 10-week-old male rats. They are extracted under anesthesia with isoflurane, before euthanizing the animals. The glands are then digested enzymatically with trypsin (0.25% trypsin+collagenase H 1.5 mg/ml/gland). The cells are cultured for 24 hours in 24-well plates (37° C., 5% CO2) in DMEM culture medium supplemented with various factors, especially fetal calf serum (10%), glutamine (1%), a cocktail of antibiotics and anti-mycotic agents and insulin (5 μg/ml). The cells are then placed in Cellgro medium supplemented with various factors (Mediatech®) and the test compounds are then added in response doses (duplicate). After incubation for 5 days, 10 μl of radio labeled (^14C) acetate are added to the culture medium (0.2 μCi/μl, Amersham). The cells are incubated for 24 hours and then washed and recovered after digestion with trypsin. The radiolabelled lipids are then extracted using a methanol/dichloromethane mixture (1/2) and placed on a silica TLC plate (Merck®) using a loading robot. The lipids are then separated and quantified after revelation using a Phosphorimager (analysis by image analysis software). For each compound, the AC50 (concentration for which 50% of the effect of the compound is obtained) is determined. The results are expressed as nanomolar concentration for the following specific sebaceous gland lipids: Triglycerides and/or Cholesterol esters.

PPARδ = biological target: T3, PPARδ (Homo sapiens, UniProt Q03181); experiment: Cross-curve PPAR transactivation test (PPARδ); settings: HeLN cells, Gal-hPPARδ, luciferase reporter; cross curves against reference agonist, Schild regression; n.a means not active; read-out: PPARs delta Kd app
T3 sequence (Q03181 171-441 limits assumed): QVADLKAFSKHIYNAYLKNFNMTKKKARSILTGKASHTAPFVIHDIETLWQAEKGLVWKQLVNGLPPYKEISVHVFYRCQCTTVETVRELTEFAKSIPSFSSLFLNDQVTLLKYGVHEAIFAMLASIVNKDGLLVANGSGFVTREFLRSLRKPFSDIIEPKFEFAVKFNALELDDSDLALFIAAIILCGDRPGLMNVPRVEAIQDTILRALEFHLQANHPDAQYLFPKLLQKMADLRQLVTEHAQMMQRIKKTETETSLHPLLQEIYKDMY
Method: as §1, §2, §3, §4, §5

Row | SMILES | Kd (PPARα) [nM] | Kd (PPARγ) [nM] | AC50 [1] [nM] | Kd (PPARδ) [nM]
1 | CCCCCCCNC(=O)N(C)c1cccc(-c2ccc(CCC(=O)O)cc2OCCC(C)C)c1 [Example 16, 3-[3′-(3-heptyl-1-methylureido)-2-(3-methylbutoxy)biphenyl-4-yl]propanoic acid] | 1000 | 1 | 0.008 | –
2 | CCCCCCCNC(=O)N(C)c1cccc(-c2ccc(CCC(=O)O)cc2OCCCC)c1 [Example 26, 3-[2-butoxy-3′-(3-heptyl-1-methylureido)biphenyl-4-yl]propanoic acid] | 250 | 0.25 | 0.005 | 1000
3 | CCCCCCCNC(=O)N(C)c1cccc(-c2ccc(CCC(=O)O)cc2OCCCC(F)(F)F)c1 [Example 38, 3-[3′-(3-heptyl-1-methylureido)-2-(4,4,4-trifluorobutoxy)biphenyl-4-yl]propanoic acid] | 250 | 1 | 0.006 | –
4 | CCCCCNC(=O)N(C)c1cccc(-c2ccc(CCC(=O)O)cc2OCCCC)c1 [Example 41, 3-[2-butoxy-3′-(1-methyl-3-pentylureido)biphenyl-4-yl]propanoic acid] | 60 | 0.5 | 0.008 | 2000
5 | CCCCCCCNC(=O)N(C)c1cccc(-c2ccc(CCC(=O)O)cc2OCc2ccc(F)cc2)c1 [Example 44, 3-[2-(4-fluorobenzyloxy)-3′-(3-heptyl-1-methylureido)biphenyl-4-yl]propanoic acid] | 1000 | 1 | 0.008 | –
